Data taken from patent publication US12077503B2, “Substituted cyclic amides and their use as herbicides” (FMC CORPORATION, priority 2015, dated 2024).

How the values were obtained:
Type in all cases: in vivo
[1] = tested on: redroot pigweed (Amaranthus retroflexus); assay: Test G Post-Emergence Protocol; conditions: Amaranthus retroflexus, post-emergence, 312 h; for pest or weed control at 15.625 g/ha: 15.625 g ai/ha, evaluated after 13 days (100=total damage to plant; 0=no damage to plant), read-out: Pigweed, Redroot damage rating; for pest or weed control at 62.5 g/ha: 62.5 g ai/ha, read-out: Pigweed, Redroot damage rating (100=total damage to plant; 0=no damage to plant); for pest or weed control at 62.5 g/ha / pest or weed control at 250 g/ha: evaluated after 13 days; for pest or weed control at 250 g/ha: 250 g ai/ha, read-out: damage to plant, Pigweed, Redroot (100=total damage to plant; 0=no damage to plant)
Summary of the method: (§1)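 Scores run 0 (no damage) to 100 (total damage) and were taken 13 days after spraying. Plants had been raised in pots for 8 days under glasshouse control (24/16 °C, 14 h photoperiod, 65% humidity) and then treated at 15.625, 62.5 or 250 g/ha.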

[2] = tested on: giant foxtail (Setaria faberi); assay: Test G Post-Emergence Protocol; conditions: Setaria faberi, post-emergence, 312 h; for pest or weed control at 15.625 g/ha: 15.625 g ai/ha, evaluated after 13 days (100=total damage to plant; 0=no damage to plant), read-out: Foxtail, Giant damage rating; for pest or weed control at 62.5 g/ha: 62.5 g ai/ha, read-out: Foxtail, Giant damage rating (100=total damage to plant; 0=no damage to plant); for pest or weed control at 62.5 g/ha / pest or weed control at 250 g/ha: evaluated after 13 days; for pest or weed control at 250 g/ha: 250 g ai/ha, read-out: damage to plant, Foxtail, Giant (100=total damage to plant; 0=no damage to plant)
Summary of the method: as §1

[3] = tested on: ivy-leaved morning glory (Ipomoea hederacea); assay: Test G Post-Emergence Protocol; conditions: Ipomoea, post-emergence, 312 h; for pest or weed control at 15.625 g/ha: 15.625 g ai/ha, evaluated after 13 days (100=total damage to plant; 0=no damage to plant), read-out: Morningglory, Ivy-leaved damage rating; for pest or weed control at 62.5 g/ha: 62.5 g ai/ha, read-out: Morningglory, Ivy-leaved damage rating (100=total damage to plant; 0=no damage to plant); for pest or weed control at 62.5 g/ha / pest or weed control at 250 g/ha: evaluated after 13 days; for pest or weed control at 250 g/ha: 250 g ai/ha, read-out: damage to plant, Morningglory, Ivy-leaved (100=total damage to plant; 0=no damage to plant)
Summary of the method: as §1

[4] = tested on: barnyardgrass (Echinochloa crus-galli); assay: Test G Post-Emergence Protocol; conditions: Echinochloa crus-galli, post-emergence, 312 h; for pest or weed control at 15.625 g/ha: 15.625 g ai/ha, evaluated after 13 days (100=total damage to plant; 0=no damage to plant), read-out: Barnyardgrass damage rating; for pest or weed control at 62.5 g/ha: 62.5 g ai/ha, read-out: Barnyardgrass damage rating (100=total damage to plant; 0=no damage to plant); for pest or weed control at 62.5 g/ha / pest or weed control at 250 g/ha: evaluated after 13 days; for pest or weed control at 250 g/ha: 250 g ai/ha, read-out: damage to plant, Barnyardgrass (100=total damage to plant; 0=no damage to plant)
Summary of the method: as §1

[5] = tested on: velvetleaf (Abutilon theophrasti); assay: Test G Post-Emergence Protocol; conditions: Abutilon theophrasti, post-emergence, 312 h; for pest or weed control at 15.625 g/ha: 15.625 g ai/ha, evaluated after 13 days (100=total damage to plant; 0=no damage to plant), read-out: Velvetleaf damage rating; for pest or weed control at 62.5 g/ha: 62.5 g ai/ha, read-out: Velvetleaf damage rating (100=total damage to plant; 0=no damage to plant); for pest or weed control at 62.5 g/ha / pest or weed control at 250 g/ha: evaluated after 13 days; for pest or weed control at 250 g/ha: 250 g ai/ha, read-out: damage to plant, Velvetleaf (100=total damage to plant; 0=no damage to plant)
Summary of the method: as §1

corn (Zea mays) [6] = assay: Test G Post-Emergence Protocol; conditions: Zea mays, post-emergence, 312 h; for plant injury at 15.625 g/ha: 15.625 g ai/ha, evaluated after 13 days (100=total damage to plant; 0=no damage to plant), read-out: Corn damage rating; for plant injury at 62.5 g/ha: 62.5 g ai/ha, read-out: Corn damage rating (100=total damage to plant; 0=no damage to plant); for plant injury at 62.5 g/ha / plant injury at 250 g/ha: evaluated after 13 days; for plant injury at 250 g/ha: 250 g ai/ha, read-out: damage to plant, Corn (100=total damage to plant; 0=no damage to plant)
Summary of the method: as §1

[7] = tested on: redroot pigweed (Amaranthus retroflexus); assay: Test G Pre-Emergence Protocol; conditions: Amaranthus retroflexus, pre-emergence, 312 h, evaluated after 13 days; for pest or weed control at 15.625 g/ha: 15.625 g ai/ha; for pest or weed control at 15.625 g/ha / pest or weed control at 250 g/ha: read-out: Pigweed, Redroot damage rating (100=total damage to plant; 0=no damage to plant); for pest or weed control at 62.5 g/ha: 62.5 g ai/ha, 100=total damage to plant, 0=no damage to plant, read-out: plant damage rating, Pigweed, Redroot; for pest or weed control at 250 g/ha: 250 g ai/ha
Summary of the method: (§2)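 Test compound in 0.5% Tween 20 acetone/water (50:50) was applied at three rates (15.625, 62.5, 250 g/ha) to soil sown one day earlier. After 13 days plants were scored for injury, where 0 means unaffected and 100 means completely damaged.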

[8] = tested on: giant foxtail (Setaria faberi); assay: Test G Pre-Emergence Protocol; conditions: Setaria faberi, pre-emergence, 312 h, evaluated after 13 days; for pest or weed control at 15.625 g/ha: 15.625 g ai/ha; for pest or weed control at 15.625 g/ha / pest or weed control at 250 g/ha: read-out: Foxtail, Giant damage rating (100=total damage to plant; 0=no damage to plant); for pest or weed control at 62.5 g/ha: 62.5 g ai/ha, 100=total damage to plant, 0=no damage to plant, read-out: plant damage rating, Foxtail, Giant; for pest or weed control at 250 g/ha: 250 g ai/ha
Summary of the method: as §2

[9] = tested on: ivy-leaved morning glory (Ipomoea hederacea); assay: Test G Pre-Emergence Protocol; conditions: Ipomoea, pre-emergence, 312 h, evaluated after 13 days; for pest or weed control at 15.625 g/ha: 15.625 g ai/ha, read-out: Morning-glory, Ivy-leaved damage rating (100=total damage to plant; 0=no damage to plant); for pest or weed control at 62.5 g/ha: 62.5 g ai/ha, 100=total damage to plant, 0=no damage to plant, read-out: plant damage rating, Morningglory, Ivy-leaved; for pest or weed control at 250 g/ha: 250 g ai/ha, read-out: Morningglory, Ivy-leaved damage rating (100=total damage to plant; 0=no damage to plant)
Summary of the method: as §2

[10] = tested on: barnyardgrass (Echinochloa crus-galli); assay: Test G Pre-Emergence Protocol; conditions: Echinochloa crus-galli, pre-emergence, 312 h, evaluated after 13 days; for pest or weed control at 15.625 g/ha: 15.625 g ai/ha, read-out: Barnyard grass damage rating (100=total damage to plant; 0=no damage to plant); for pest or weed control at 62.5 g/ha: 62.5 g ai/ha, 100=total damage to plant, 0=no damage to plant, read-out: plant damage rating, Barnyardgrass; for pest or weed control at 250 g/ha: 250 g ai/ha, read-out: Barnyardgrass damage rating (100=total damage to plant; 0=no damage to plant)
Summary of the method: as §2

[11] = tested on: velvetleaf (Abutilon theophrasti); assay: Test G Pre-Emergence Protocol; conditions: Abutilon theophrasti, pre-emergence, 312 h, evaluated after 13 days; for pest or weed control at 15.625 g/ha: 15.625 g ai/ha; for pest or weed control at 15.625 g/ha / pest or weed control at 250 g/ha: read-out: Velvetleaf damage rating (100=total damage to plant; 0=no damage to plant); for pest or weed control at 62.5 g/ha: 62.5 g ai/ha, 100=total damage to plant, 0=no damage to plant, read-out: plant damage rating, Velvetleaf; for pest or weed control at 250 g/ha: 250 g ai/ha
Summary of the method: as §2

corn (Zea mays) [12] = assay: Test G Pre-Emergence Protocol; conditions: Zea mays, pre-emergence, 312 h, evaluated after 13 days; for plant injury at 15.625 g/ha: 15.625 g ai/ha; for plant injury at 15.625 g/ha / plant injury at 250 g/ha: read-out: Corn damage rating (100=total damage to plant; 0=no damage to plant); for plant injury at 62.5 g/ha: 62.5 g ai/ha, 100=total damage to plant, 0=no damage to plant, read-out: plant damage rating, Corn; for plant injury at 250 g/ha: 250 g ai/ha
Summary of the method: as §2

Structure (SMILES)	pest or weed control at 15.625 g/ha [1] [%]	pest or weed control at 62.5 g/ha [1] [%]	pest or weed control at 250 g/ha [1] [%]	pest or weed control at 15.625 g/ha [2] [%]	pest or weed control at 62.5 g/ha [2] [%]	pest or weed control at 250 g/ha [2] [%]	pest or weed control at 15.625 g/ha [3] [%]	pest or weed control at 62.5 g/ha [3] [%]	pest or weed control at 250 g/ha [3] [%]	pest or weed control at 15.625 g/ha [4] [%]	pest or weed control at 62.5 g/ha [4] [%]	pest or weed control at 250 g/ha [4] [%]	pest or weed control at 15.625 g/ha [5] [%]	pest or weed control at 62.5 g/ha [5] [%]	pest or weed control at 250 g/ha [5] [%]	plant injury at 15.625 g/ha (corn (Zea mays) [6]) [%]	plant injury at 62.5 g/ha (corn (Zea mays) [6]) [%]	plant injury at 250 g/ha (corn (Zea mays) [6]) [%]	pest or weed control at 15.625 g/ha [7] [%]	pest or weed control at 62.5 g/ha [7] [%]	further results
C=CCc1c(Cl)cccc1NC(=O)[C@H]1C(=O)N(C)C[C@H]1c1ccc(C(F)(F)F)cc1 (racemic) [Compound 1439]	0	0	40	0	20	60	0	0	0	0	0	10	0	0	0	10	10	10	0	0	pest or weed control at 250 g/ha [7]: 0%; pest or weed control at 15.625 g/ha [8]: 0%; pest or weed control at 62.5 g/ha [8]: 0%; pest or weed control at 250 g/ha [8]: 50%; pest or weed control at 15.625 g/ha [9]: 0%; pest or weed control at 62.5 g/ha [9]: 0%; pest or weed control at 250 g/ha [9]: 0%; pest or weed control at 15.625 g/ha [10]: 0%; pest or weed control at 62.5 g/ha [10]: 0%; pest or weed control at 250 g/ha [10]: 40%; pest or weed control at 15.625 g/ha [11]: 0%; pest or weed control at 62.5 g/ha [11]: 0%; pest or weed control at 250 g/ha [11]: 0%; plant injury at 15.625 g/ha (corn (Zea mays) [12]): 0%; plant injury at 62.5 g/ha (corn (Zea mays) [12]): 0%; plant injury at 250 g/ha (corn (Zea mays) [12]): 0%
CN1C[C@@H](c2ccc(C(F)(F)F)cc2)[C@H](C(=O)Nc2ccccn2)C1=O (racemic) [Compound 1596]	0	10	40	0	60	80	0	10	20	0	30	70	0	0	10	0	0	10	0	20	pest or weed control at 250 g/ha [7]: 60%; pest or weed control at 15.625 g/ha [8]: 0%; pest or weed control at 62.5 g/ha [8]: 40%; pest or weed control at 250 g/ha [8]: 80%; pest or weed control at 15.625 g/ha [9]: 0%; pest or weed control at 62.5 g/ha [9]: 10%; pest or weed control at 250 g/ha [9]: 100%; pest or weed control at 15.625 g/ha [10]: 0%; pest or weed control at 62.5 g/ha [10]: 0%; pest or weed control at 250 g/ha [10]: 70%; pest or weed control at 15.625 g/ha [11]: 0%; pest or weed control at 62.5 g/ha [11]: 0%; pest or weed control at 250 g/ha [11]: 20%; plant injury at 15.625 g/ha (corn (Zea mays) [12]): 0%; plant injury at 62.5 g/ha (corn (Zea mays) [12]): 0%; plant injury at 250 g/ha (corn (Zea mays) [12]): 0%
CN1C[C@@H](c2cc(Cl)nc(C(F)(F)F)c2)[C@H](C(=O)Nc2cccc(F)c2F)C1=O (racemic) [Compound 1485]	0	20	40	60	70	70	0	0	20	50	70	70	0	10	20	40	70	80	0	30	pest or weed control at 250 g/ha [7]: 60%; pest or weed control at 15.625 g/ha [8]: 60%; pest or weed control at 62.5 g/ha [8]: 90%; pest or weed control at 250 g/ha [8]: 90%; pest or weed control at 15.625 g/ha [9]: 0%; pest or weed control at 62.5 g/ha [9]: 0%; pest or weed control at 250 g/ha [9]: 0%; pest or weed control at 15.625 g/ha [10]: 60%; pest or weed control at 62.5 g/ha [10]: 90%; pest or weed control at 250 g/ha [10]: 90%; pest or weed control at 15.625 g/ha [11]: 0%; pest or weed control at 62.5 g/ha [11]: 0%; pest or weed control at 250 g/ha [11]: 30%; plant injury at 15.625 g/ha (corn (Zea mays) [12]): 40%; plant injury at 62.5 g/ha (corn (Zea mays) [12]): 70%; plant injury at 250 g/ha (corn (Zea mays) [12]): 80%
